{"source": "patent US8022043B2", "about": "“Ceramide derivatives as modulators of immunity and autoimmunity” (Albert Einstein College of Medicine of Yeshiva University, priority 2004, dated 2011)", "key": {"NOD mice": {"tested_on": "NOD mice", "conditions": "twice weekly injection from 4 weeks of age, reduction from 75%; cited from earlier work"}, "[1]": {"tested_on": "Bulk splenocytes from C57BL/6 mice", "assay": "Cytokine response of splenocyte cultures (IL-4 and IFNγ ELISA)", "format": "cell-based", "conditions": "500 nM glycolipid, 48 hours", "experimental": "The cytokine response reported in Table 1 and FIG. 5C was determined by the following procedure: Bulk splenocytes from C57BL/6 mice were plated at 300,000 per well in 96-well flat-bottom tissue culture plates with ceramide-like glycolipids diluted to a concentration of 500 nM in 200 microliters complete medium. After 48 h at 37° C., 150 microliters of supernatant was removed for cytokine measurements. Supernatant levels of IL-4, and IFNγ were measured by standard enzyme-linked immunosorbent assay (ELISA), using capture and biotinylated detection antibody pairs (clones 11B11/BVD6-24G2-biotin, and R4-6A2/XMG1.2-biotin, respectively, from BD Pharmingen, San Diego, Calif.). […] Standards for IL-4 and IFNγ were from Peprotech (Rocky Hill, N.J.)."}, "C57BL/6 mice": {"tested_on": "C57BL/6 mice", "assay": "Serum IL-4 and IFNγ after a single i.p. injection", "format": "in vivo", "conditions": "20 hours after single i.p. injection of 4.8 nanomoles", "experimental": "Serum levels of L-4 and IFNγ after a single injection of DB01-1, DB03-4, or DB03-5 are shown. C57BL/6 mice (11-13 weeks old) were given a single i.p. injection of 4.8 nanomoles of the compounds or phosphate buffered saline (PBS)/vehicle control. Serum cytokine levels were measured 2 and 20 hours later by capture ELISA. Bars show means of three mice, with standard deviation. Note that DB01-1 has nearly identical structure to KRN7000 (C24 fatty acid as compared to C26) and has activity that is indistinguishable from KRN7000 in multiple bioassays. We use DB01-1 as a “KRN7000 mimic” because it has been synthesized by our group and is readily available for our studies, and KRN7000 was unavailable due to license restrictions.\nA most intriguing property of KRN7000 analogues is that in some cases they may elicit immune responses that are qualitatively different from those that occur following stimulation with the parent compound. […] This selective activation of IL-4 production by NK T cells was proposed to be the basis for the enhanced therapeutic effects of OCH in the EAE model of central nervous system autoimmune disease. We have observed a similar in vivo effect on the nature of the NK T cell response using several of our ceramide-like glycolipids. […] These responses are similar to those seen for DB01-1, an analogue that is structurally almost identical to KRN7000 (C24 fatty acid instead of C26, otherwise identical) and indistinguishable in terms of its activity in our hands. […] This selective IL-4 induction is virtually identical to that reported for the OCH analogue, and thus illustrates the potential for amino substituted analogues of KRN7000 to induce qualitatively different immunomodulatory effects in vivo. The results reported in FIG. 9 were obtained by measuring serum levels of IL-4 and IFNγ after administering a single injection of […], DB03-4, or DB03-5 to C57BL/6 mice. C57BL/6 mice (11-13 weeks old) were given a single i.p. injection of 4.8 nanomoles of the ceramide-like glycolipids or PBS/vehicle control. Serum cytokine levels were measured 2 and 20 hours later by capture ELISA. Bars show means of three mice, with standard deviation.\nFor experiments involving in vivo treatment of mice with the ceramide-like glycolipids, the ceramide-like glycolipids were administered by i.p. or i.v. injection in 0.2 ml PBS+0.025% Tween-20, or in vehicle alone. A typical dose is about 4-5 nmoles per animal per injection. Representative references for administering an α-galactosyl ceramide to mice by i.p., i.v. or p.o. routes are S. Sharif et al., Activation of natural killer T cells by alpha-galactosylceramide treatment prevents the onset and recurrence of autoimmune Type 1 diabetes, Nat. Med., Sep. 7, 2001, (9):1057-62 and K. Miyamoto et al., A synthetic glycolipid prevents autoimmune encephalomyelitis by inducing TH2 bias of natural killer T cells, Nature. Oct. 4, 2001, 413(6855):5314."}, "[2]": {"tested_on": "Bulk splenocytes from C57BL/6 mice", "assay": "Splenocyte proliferation assay (3H-thymidine incorporation)", "format": "cell-based", "conditions": "Mus musculus, concentration giving 50% maximal response in proliferation of splenocyte cultures"}, "NK T hybridoma DN3A4.1-2": {"tested_on": "NK T hybridoma DN3A4.1-2", "assay": "Upregulation of CD40L (CD154), FACS", "format": "cell-based, mouse", "conditions": "0.5 uM glycolipid, 18 hours, RMA-S/CD1d cells", "experimental": "The upregulation of CD40L by ceramide-like glycolipids reported in FIG. 11 were obtained by incubating NK T hybridoma DN3A4.1-2 with RMA-S/CD1d cells at a ratio of 2:1 in the presence of 0.5 uM of ceramide-like glycolipid for 18 hours. Cells were then resuspended and labeled with mAbs specific for CD5 and CD40L. Levels of CD40L were determined by FACS analysis of the population gated for CD5 staining."}, "NZB/W-F1 mice": {"tested_on": "NZB/W-F1 mice", "assay": "SLE in NZB/W-F1 mice", "format": "in vivo"}, "iNKT cells": {"tested_on": "iNKT cells", "assay": "In vitro cytokine modulation, murine cell assay system", "format": "cell-based", "text": "The term iNKT cells, as used herein, mean the specific subset of CD1d-dependent T cells that expresses the invariant TCRα chain rearrangement consisting of Vα14-Jα18 in mice, and Vα24-Jα18 in humans. These cells are uniformly reactive to α-galactosylceramides presented by CD1d. These cells are also referred to as “Type 1” NKT cells, and the distinction between the different types of NKT cells and the nomenclature relating to this are summarized in the publication by Godfrey et al., Nat Rev Immunol. 2004 March; 4(3):231-7. Methods for determining cytokine production by iNKT cells in response to CD1d-presented glycolipids for determination of strong or weak agonist activity are described in Yu K O A, Im J S, Molano A, Dutronc Y, Illarionov P A, Forestier C, Fujiwara N, Arias I, Miyake S, Yamamura T, Chang Y-T, Besra G S, Porcelli S A, Modulation of CD1d-restricted NKT cell responses using N-acyl variants of α-galactosylceramides, Proc. Nat. Acad. Sci. (USA), 102:3383-8 (2005), see also Godfrey D I et al., Nat Rev Immunol. 2004 March; 4(3):231-7."}, "[3]": {"conditions": "culture supernatant ELISA, ND = below the reliable level for detection"}}, "data": [{"compound": "CCCCCCCCCCCCCCCCCCCCCCCCCC(=O)N[C@@H](CO[C@H]1O[C@H](CO)[C@H](O)[C@H](O)[C@H]1O)[C@H](O)[C@H](O)CCCCCCCCCCCCCC", "note": "[KRN7000, (2S,3S,4R)-1-O-(α-D-galactopyranosyl)-N-hexacosanoyl-2-amino-1,3,4-octadecanetriol]", "values": [{"measurement": "incidence of diabetes", "setting": "NOD mice", "value": "approximately 5%"}]}, {"compound": "CCCCCCCCCCCCCCCCCCCCCCCC(=O)N[C@@H](COC1OC(CO)C(O)C(O)C1O)[C@H](O)[C@H](O)CCCCCCCCCCCCCC", "note": "(some centres unmarked) [DB01-1]", "values": [{"measurement": "IL-4/IFNγ ratio divided by this ratio for DB01-1 (value in parentheses)", "setting": "[1]", "value": 1.0}, {"measurement": "ratio IL-4/IFNγ", "setting": "[1]", "value": 0.026}, {"measurement": "Cytokine Response IFNγ", "setting": "[1]; [3]", "value": 7.29, "unit": "ng/mL"}, {"measurement": "Cytokine Response IL-4", "setting": "[1]; [3]", "value": 0.19, "unit": "ng/mL"}, {"measurement": "serum IFNγ response", "setting": "C57BL/6 mice", "value": "strong IFNγ response"}, {"measurement": "EC50", "setting": "[2]", "value": 63.6, "unit": "nM"}]}, {"compound": "CCCCCCCCCCCCCCCCCCCCCCCC(=O)N[C@@H](CO[C@@H]1OC(C)[C@@H](O)[C@H](O)C1O)[C@H](O)[C@H](O)CCCCCCCCCCCCCC", "note": "(some centres unmarked) [DB03-8]", "values": [{"measurement": "CD40L expression", "setting": "NK T hybridoma DN3A4.1-2", "value": "capable of inducing CD40L"}, {"measurement": "effect on SLE", "setting": "NZB/W-F1 mice", "value": "exacerbates SLE"}, {"measurement": "agonist activity on iNKT cells", "setting": "iNKT cells; in vitro", "value": "weak agonist"}, {"measurement": "in vitro activity at modulating cytokines", "setting": "iNKT cells; murine cell assay system", "value": "show in vitro activity"}]}]}
